Experimental data taken from patent US20210045385A1, “PYRIDAZINONE-SUBSTITUTED KETOXIMES AS HERBICIDES” (FMC Corporation, priority 2018, published 2021).

Columns and labels:
Format in all cases: in vivo
kochia (Bassia scoparia) [1] = assay: Test C preemergence, visual plant response rating
Outline: (§1)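 Compounds in a non-phytotoxic solvent with surfactant were applied as a directed soil spray preemergence or to 2–10 cm, one- to two-leaf plants postemergence, in loam–sand soil. After about 10 d in a greenhouse, injury was visually rated against untreated controls on a 0–100 scale (100 = complete control).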

[2] = test system: pigweed (Amaranthus retroflexus); assay: Test C preemergence, visual plant response rating
Outline: as §1

[3] = test system: barnyardgrass (Echinochloa crus-galli); assay: Test C preemergence, visual plant response rating
Outline: as §1

[4] = test system: Italian ryegrass (Lolium mutiflorum); assay: Test C preemergence, visual plant response rating
Outline: as §1

[5] = test system: foxtail, giant (giant foxtail, Setaria faberi); assay: Test C preemergence, visual plant response rating
Outline: as §1

rice (Oryza sativa) = assay: Test D flooded paddy test, visual plant response rating; conditions: 250 g ai/ha, scale 0 to 100 (0 no effect, 100 complete control), 13 to 15 d
Protocol: (§2) Plant species in the flooded paddy test selected from rice (Oryza sativa), sedge umbrella (small-flower umbrella sedge, Cyperus difformis) duck salad (Heteranthera limosa), and barnyardgrass (Echinochloa crus-galli) were grown to the 2-leaf stage for testing. At time of treatment, test pots were flooded to 3 cm above the soil surface, treated by application of test compounds directly to the paddy water, and then maintained at that water depth for the duration of the test. Treated plants and controls were maintained in a greenhouse for 13 to 15 d, after which time all species were compared to controls and visually evaluated. Plant response ratings, summarized in Table D, are based on a scale of 0 to 100 where 0 is no effect and 100 is complete control. A dash (-) response means no test result.

[6] = test system: duck salad (Heteranthera limosa); assay: as above; conditions: 250 g ai/ha, scale 0 to 100 (0 no effect, 100 complete control), 13 to 15 d
Protocol: as §2

[7] = test system: barnyardgrass (Echinochloa crus-galli); assay: as above; conditions: 250 g ai/ha, scale 0 to 100 (0 no effect, 100 complete control), 13 to 15 d
Protocol: as §2

[8] = test system: sedge umbrella (small-flower umbrella sedge, Cyperus difformis); assay: as above; conditions: 250 g ai/ha, scale 0 to 100 (0 no effect, 100 complete control), 13 to 15 d
Protocol: as §2

corn (Zea mays) = assay: Test C postemergence, visual plant response rating
From the text: (§3) Seeds of plant species selected from barnyardgrass (Echinochloa crus-galli), kochia (Bassia scoparia), ragweed (common ragweed, Ambrosia artemisiifolia), Italian ryegrass (Lolium mutiflorum), foxtail, giant (giant foxtail, Setaria faberi), foxtail, green (green foxtail, Setaria viridis), and pigweed (Amaranthus retroflexus) were planted into a blend of loam soil and sand and treated preemergence with a directed soil spray using test chemicals formulated in anon-phytotoxic solvent mixture which included a surfactant.
(§4) At the same time, plants selected from these weed species and also wheat (Triticum aestivum), corn (Zea mays), blackgrass (Alopecurus myosuroides), and galium (catchweed bedstraw, Galium aparine) were planted in pots containing the same blend of loam soil and sand and treated with post emergence applications of test chemicals formulated in the same manner. Plants ranged in height from 2 to 10 cm and were in the one- to two-leaf stage for the postemergence treatment. Treated plants and untreated controls were maintained in a greenhouse for approximately 10 d, after which time all treated plants were compared to untreated controls and visually evaluated for injury. Plant response ratings, summarized in Table C, are based on a 0 to 100 scale where 0 is no effect and 100 is complete control. A dash (-)response means no test result.

kochia (Bassia scoparia) [9] = assay: Test C postemergence, visual plant response rating
From the text: as §3, §4

[10] = test system: pigweed (Amaranthus retroflexus); assay: Test C postemergence, visual plant response rating
From the text: as §3, §4

[11] = test system: barnyardgrass (Echinochloa crus-galli); assay: Test C postemergence, visual plant response rating
From the text: as §3, §4

[12] = test system: blackgrass (Alopecurus myosuroides); assay: Test C postemergence, visual plant response rating
From the text: as §3, §4

[13] = test system: wheat (Triticum aestivum); assay: Test C postemergence, visual plant response rating
From the text: as §3, §4

[14] = test system: ragweed (common ragweed, Ambrosia artemisiifolia); assay: Test C postemergence, visual plant response rating
From the text: as §3, §4

[15] = test system: Italian ryegrass (Lolium mutiflorum); assay: Test C postemergence, visual plant response rating
From the text: as §3, §4

[16] = test system: galium (catchweed bedstraw, Galium aparine); assay: Test C postemergence, visual plant response rating
From the text: as §3, §4

[17] = test system: foxtail, giant (giant foxtail, Setaria faberi); assay: Test C postemergence, visual plant response rating
From the text: as §3, §4

[18] = Test C, 31 g ai/ha, 0 is no effect, 100 is complete control
[19] = Test C, postemergence, 125 g ai/ha

| SMILES | Kochia plant response rating (0 to 100 scale) (kochia (Bassia scoparia) [1]; 125 g ai/ha) | Kochia plant response rating (0 to 100 scale) (kochia (Bassia scoparia) [1]; [18]) | Pigweed plant response rating (0 to 100 scale) ([2]; 125 g ai/ha) | Pigweed plant response rating (0 to 100 scale) [2, 18] | Barnyardgrass plant response rating (0 to 100 scale) ([3]; 125 g ai/ha) | Barnyardgrass plant response rating (0 to 100 scale) [3, 18] | Ryegrass, Italian plant response rating (0 to 100 scale) ([4]; 125 g ai/ha) | Ryegrass, Italian plant response rating (0 to 100 scale) [4, 18] | Foxtail, Giant plant response rating (0 to 100 scale) ([5]; 125 g ai/ha) | Foxtail, Giant plant response rating (0 to 100 scale) [5, 18] | Plant response rating, Rice (Flood) (rice (Oryza sativa)) | Plant response rating, Ducksalad (Flood) [6] | Plant response rating, Barnyardgrass (Flood) [7] | Plant response rating, Sedge, Umbrella (Flood) [8] | Corn plant response rating (0 to 100 scale) (corn (Zea mays); Postemergence, 31 g ai/ha) | Corn plant response rating (0 to 100 scale) (corn (Zea mays); [19]) | Kochia plant response rating (0 to 100 scale) (kochia (Bassia scoparia) [9]; Postemergence, 31 g ai/ha) | Kochia plant response rating (0 to 100 scale) (kochia (Bassia scoparia) [9]; [19]) | Pigweed plant response rating (0 to 100 scale) ([10]; Postemergence, 31 g ai/ha) | Pigweed plant response rating (0 to 100 scale) [10, 19] | other results |
| --- | --- | --- | --- | --- | --- | --- | --- | --- | --- | --- | --- | --- | --- | --- | --- | --- | --- | --- | --- | --- | --- |
| C#CCO/N=C(\c1cc(Cl)cc(Cl)c1Cl)c1c(O)c(C)nn(C)c1=O [Compound 187] | 90 | 0 | 90 | 60 | 100 | 70 | 100 | 40 | 100 | 80 | 15 | 75 | 35 | 60 | 0 | 20 | 40 | 70 | 20 | 70 | Barnyardgrass plant response rating (0 to 100 scale) ([11]; Postemergence, 31 g ai/ha): 30; Barnyardgrass plant response rating (0 to 100 scale) [11, 19]: 70; Blackgrass plant response rating (0 to 100 scale) ([12]; Postemergence, 31 g ai/ha): 0; Blackgrass plant response rating (0 to 100 scale) [12, 19]: 0; Wheat plant response rating (0 to 100 scale) ([13]; Postemergence, 31 g ai/ha): 0; Wheat plant response rating (0 to 100 scale) [13, 19]: 50; Ragweed plant response rating (0 to 100 scale) ([14]; Postemergence, 31 g ai/ha): 90; Ragweed plant response rating (0 to 100 scale) [14, 19]: 100; Ryegrass, Italian plant response rating (0 to 100 scale) ([15]; Postemergence, 31 g ai/ha): 70; Ryegrass, Italian plant response rating (0 to 100 scale) [15, 19]: 100; Galium plant response rating (0 to 100 scale) ([16]; Postemergence, 31 g ai/ha): 80; Galium plant response rating (0 to 100 scale) [16, 19]: 100; Foxtail, Giant plant response rating (0 to 100 scale) ([17]; Postemergence, 31 g ai/ha): 50; Foxtail, Giant plant response rating (0 to 100 scale) [17, 19]: 80 |
| CON=C(c1cc(Cl)cc(Cl)c1)c1c(O)c(C)nn(C)c1=O [Compound 188] | 100 | 10 | 90 | 70 | 100 | 30 | 100 | 80 | 100 | 90 | 0 | 70 | 15 | 85 | 0 | 30 | 80 | 100 | 80 | 90 | Barnyardgrass plant response rating (0 to 100 scale) ([11]; Postemergence, 31 g ai/ha): 30; Barnyardgrass plant response rating (0 to 100 scale) [11, 19]: 60; Blackgrass plant response rating (0 to 100 scale) ([12]; Postemergence, 31 g ai/ha): 40; Blackgrass plant response rating (0 to 100 scale) [12, 19]: 30; Wheat plant response rating (0 to 100 scale) ([13]; Postemergence, 31 g ai/ha): 10; Wheat plant response rating (0 to 100 scale) [13, 19]: 50; Ragweed plant response rating (0 to 100 scale) ([14]; Postemergence, 31 g ai/ha): 60; Ragweed plant response rating (0 to 100 scale) [14, 19]: 100; Ryegrass, Italian plant response rating (0 to 100 scale) ([15]; Postemergence, 31 g ai/ha): 80; Ryegrass, Italian plant response rating (0 to 100 scale) [15, 19]: 100; Galium plant response rating (0 to 100 scale) ([16]; Postemergence, 31 g ai/ha): 100; Galium plant response rating (0 to 100 scale) [16, 19]: 100; Foxtail, Giant plant response rating (0 to 100 scale) ([17]; Postemergence, 31 g ai/ha): 40; Foxtail, Giant plant response rating (0 to 100 scale) [17, 19]: 90 |
| CON=C(c1cc(Cl)cc(Cl)c1)c1c(O)c(C)nn(C)c1=O [Compound 189] | 40 | 0 | 100 | 70 | 90 | 20 | 100 | 90 | 90 | 20 | 15 | 25 | 0 | 35 | 0 | 10 | 70 | 90 | 50 | 80 | Barnyardgrass plant response rating (0 to 100 scale) ([11]; Postemergence, 31 g ai/ha): 30; Barnyardgrass plant response rating (0 to 100 scale) [11, 19]: 50; Blackgrass plant response rating (0 to 100 scale) ([12]; Postemergence, 31 g ai/ha): 10; Blackgrass plant response rating (0 to 100 scale) [12, 19]: 30; Wheat plant response rating (0 to 100 scale) ([13]; Postemergence, 31 g ai/ha): 10; Wheat plant response rating (0 to 100 scale) [13, 19]: 50; Ragweed plant response rating (0 to 100 scale) ([14]; Postemergence, 31 g ai/ha): 70; Ragweed plant response rating (0 to 100 scale) [14, 19]: 90; Ryegrass, Italian plant response rating (0 to 100 scale) ([15]; Postemergence, 31 g ai/ha): 90; Ryegrass, Italian plant response rating (0 to 100 scale) [15, 19]: 100; Galium plant response rating (0 to 100 scale) ([16]; Postemergence, 31 g ai/ha): 100; Galium plant response rating (0 to 100 scale) [16, 19]: 100; Foxtail, Giant plant response rating (0 to 100 scale) ([17]; Postemergence, 31 g ai/ha): 50; Foxtail, Giant plant response rating (0 to 100 scale) [17, 19]: 80 |
| CON=C(c1c(OC(C)=O)c(Cl)nn(C)c1=O)c1ccc(F)c2ccccc12 [Compound 190] | 0 | 0 | 90 | 20 | 50 | 30 | 60 | 0 | 70 | 60 | 0 | 0 | 0 | 0 | 0 | 0 | 10 | 20 | 30 | 30 | Barnyardgrass plant response rating (0 to 100 scale) ([11]; Postemergence, 31 g ai/ha): 30; Barnyardgrass plant response rating (0 to 100 scale) [11, 19]: 20; Blackgrass plant response rating (0 to 100 scale) ([12]; Postemergence, 31 g ai/ha): 0; Blackgrass plant response rating (0 to 100 scale) [12, 19]: 20; Wheat plant response rating (0 to 100 scale) ([13]; Postemergence, 31 g ai/ha): 0; Wheat plant response rating (0 to 100 scale) [13, 19]: 0; Ragweed plant response rating (0 to 100 scale) ([14]; Postemergence, 31 g ai/ha): 10; Ragweed plant response rating (0 to 100 scale) [14, 19]: 60; Ryegrass, Italian plant response rating (0 to 100 scale) ([15]; Postemergence, 31 g ai/ha): 10; Ryegrass, Italian plant response rating (0 to 100 scale) [15, 19]: 20; Galium plant response rating (0 to 100 scale) ([16]; Postemergence, 31 g ai/ha): 90; Galium plant response rating (0 to 100 scale) [16, 19]: 100; Foxtail, Giant plant response rating (0 to 100 scale) ([17]; Postemergence, 31 g ai/ha): 10; Foxtail, Giant plant response rating (0 to 100 scale) [17, 19]: 30 |
